# Earlier results as cited in US6800456B2, “Modified forms of hepatitis C NS3 protease for facilitating inhibitor screening and structural studies of protease:inhibitor complexes” (Bristol-Myers Squibb Company, priority 1999, dated 2004).
# pIC50: −log10 of the molar value. Square brackets hold non-standard residues; d marks the D form. Cha = N[C@@H](CC1CCCCC1)C(=O)O
# Molecular target: HCV protease (Hepatitis C virus genotype 1a, UniProt P26664)
# Conditions: Ingallinella et al., Biochemistry 37, 8906-8914 (1998)
# Sequence of HCV protease (P26664 1027-1206 limits assumed, other chains not shown): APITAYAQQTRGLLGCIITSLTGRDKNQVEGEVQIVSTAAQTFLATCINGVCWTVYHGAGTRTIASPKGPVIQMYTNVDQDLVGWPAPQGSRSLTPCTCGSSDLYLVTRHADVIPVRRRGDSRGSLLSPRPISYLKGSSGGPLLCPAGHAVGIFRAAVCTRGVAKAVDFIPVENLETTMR
substance,measurement,value
Ac-D[dE]LI[Cha]C-OH,pIC50,7.82
